Measured values as given in patent publication US11440923B2, “Substituted macrocyclic indole derivatives” (Bayer Aktiengesellschaft, priority 2017, dated 2022).
Where a name gives a salt, the structure may show the parent alone. Read-outs that look alike come from different tables or passages of the source.

How the values were obtained:
MV-4-11 cells = test: Antiproliferation assay MV-4-11 (Assay 7); assay type: cell-based
Protocol: (§1) Assessment of the Anti-Proliferative Effect of Compounds in Different Cell Lines
(§2) The impact of compounds on the proliferation of different cell lines was assessed using the CellTiter-Glo® Luminescent Cell Viability reagent from Promega (G7573).
(§3) In parallel, cells were plated in a reference (day 0) plate for time zero determination. Cells were incubated in a humidified incubator at 37° C. overnight.
(§4) Rim wells were excluded. The cells were incubated for 72 h hours in a humidified incubator at 37° C. The day 0 plate was measured by adding 30 μL/well of CTG solution (CellTiter-Glo® Luminescent Cell Viability reagent, Promega G7573) to time zero wells in the reference plate followed by a 10 minutes incubation and luminescence reading at 0.1 ms. using the PHERAstar FS microplate reader (BMG Labtech).
(§5) After 72 h incubation, the treated plates were measured in the same way as the day 0 plate mentioned above. The Bella DRC Master Sheet was used to calculate IC50s, with CI=day 0 values and C0=DMSO control values.

MCL-1 = MCL-1 (Homo sapiens (Human), UniProt Q07820, K194A/K197A/R201A); test: Protein-compound interaction assay (SPR assay, Assay 9); assay type: binding; conditions: for Kd: KD (geometric mean); for koff: read-out: koff (geometric mean), SPR, 25° C.; for kon: read-out: kon (geometric mean), SPR, 25° C.
Sequence of MCL-1 (Q07820 whole entry K194A/K197A/R201A, looked up): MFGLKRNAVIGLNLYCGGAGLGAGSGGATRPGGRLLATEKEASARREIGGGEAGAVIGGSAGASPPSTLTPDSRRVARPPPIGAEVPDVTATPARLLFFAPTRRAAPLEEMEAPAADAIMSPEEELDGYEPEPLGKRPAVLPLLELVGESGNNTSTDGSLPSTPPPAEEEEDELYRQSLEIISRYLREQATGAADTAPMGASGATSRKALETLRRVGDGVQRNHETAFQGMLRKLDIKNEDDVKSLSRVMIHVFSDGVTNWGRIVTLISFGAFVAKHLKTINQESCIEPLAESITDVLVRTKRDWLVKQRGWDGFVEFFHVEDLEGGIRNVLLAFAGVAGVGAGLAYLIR
Excerpt: Assay 9 Protein-Compound Interaction Assay (SPR Assay)
The ability of the compounds described in this invention to bind to MCL-1 may be determined using surface plasmon resonance (SPR). This allows for the quantification of binding in terms of the equilibrium dissociation constant (KD [M]), as well as association and dissociation rate constants (kon [1/Ms] and koff [1/s], respectively). The measurements may be performed using Biacore® T200 or Biacore® S200 instruments (GE Healthcare).
Briefly, carboxymethylated dextran biosensor chips (Series S Sensor Chip CMS, GE Healthcare) were activated with 1-ethyl-3-(3-dimethylaminopropyl)-carbodiimide hydrochloride (EDC) and N-hydroxysuccinimide (NHS) according to the supplier's instructions. MBP-MCL-1 was diluted in 1×PBS-P+ (GE Healthcare) and injected on the activated chip surface. Subsequently, a solution of 1 M ethanolamine-HCl (GE Healthcare) was injected to block unreacted groups, resulting in approximately 400-2500 response units (RU) of immobilized protein. A reference surface was generated by treatment with NHS-EDC and ethanolamine-HCl. […] Compounds were injected for 60 s followed by a dissociation time of up to 1000 s.
The double-referenced sensorgrams were fit to a simple reversible Langmuir 1:1 reaction mechanism as implemented in the Biacore® T200 and S200 evaluation software (T200 evaluation software version 2.0 and S200 evaluation software version 1.0, GE Healthcare).

[1] = biological target: MCL1 protein / biotinylated BIM BH3 peptide in RKO cells (Homo sapiens (Human), UniProt Q07820); test: PIxEL: protein-protein interaction in permeabilized cells by ELISA (Assay 5); assay type: cell-based; conditions: PIxEL IC50 (median)
Sequence of MCL1 protein / biotinylated BIM BH3 peptide in RKO cells (Q07820 whole entry): as the sequence (Q07820 whole entry K194A/K197A/R201A, looked up) above, with A194K, A197K, A201R counted along it
In short: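 Digitonin (0.002%)-permeabilized RKO cells in MEB buffer pH 7.5 were treated with compound (3-fold series, top 30 μM) plus 0.2 μM biotin-BIM BH3 peptide for 1 h at room temperature. Lysates were captured on anti-MCL1 ELISA plates and bound peptide read by streptavidin-HRP luminescence. IC50 came from signal normalized to no-compound and no-cell controls.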

SNU-389 cells = test: Antiproliferation assay SNU-389 (Assay 7); assay type: cell-based; conditions: 72 h, read-out: Antiproli SNU-389 IC50
In short: (§6)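 Cells were plated overnight at 37° C, then compound-treated for 72 h. Viability was measured by CellTiter-Glo luminescence.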

SNU-16 cells = test: Antiproliferation assay SNU-16 (Assay 7); assay type: cell-based; conditions: Homo sapiens, read-out: Antiproli SNU-16 IC50 median
Protocol: as §1, §2, §3, §4, §5

DMS-114 cells = test: Antiproliferation assay DMS-114 (Assay 7); assay type: cell-based; conditions: Homo sapiens, read-out: Antiproli DM-S114 IC50 median
In short: as §6

SK-MEL-2 cells = test: Antiproliferation assay SK-MEL-2 (Assay 7); assay type: cell-based; conditions: Homo sapiens, read-out: Antiproli SK-MEL-2 IC50 median
In short: as §6

[2] = Homo sapiens, MV4-11, 72 h, CellTiter-Glo, read-out: Antiproli MV-4-11 IC50 median
[3] = DMS-114 cells, 72 h, CellTiter-Glo
[4] = read-out: Antiproli MV-4-11 IC50 median; 72 h, CellTiter-Glo
[5] = 72 h, CellTiter-Glo; read-out: Antiproli MV-4-11 IC50 median

| kon (MCL-1) [M⁻¹ s⁻¹] | IC50 [1] [µM] | IC50 (SNU-389 cells; CellTiter-Glo) [nM] | Compound | IC50 (MV-4-11 cells; [2]) [nM] | Kd (MCL-1; SPR, 25° C.) [nM] | koff (MCL-1) [s⁻¹] | other results |
| --- | --- | --- | --- | --- | --- | --- | --- |
| – | – | – | Cc1c2c(nn1C)C(CCN1CCOCC1)OCCCCn1c(C(=O)O)c(CCCOc3cccc4ccccc34)c3ccc(Cl)c-2c31 (racemic) [Example 13, (rac)-4-chloro-2,3-dimethyl-15-[2-(morpholin-4-yl)ethyl]-7-{3-[(naphthalen-1-yl)oxy]propyl}-2,10,11,12,13,15-hexahydropyrazolo[4′,3′:9,10][1,6]oxazacycloundecino[8,7,6-hi]indole-8-carboxylic Acid] | 220 | – | – | – |
| – | – | – | Cc1c2c(nn1C)C(CCN1CCOCC1)OCCCCn1c(C(=O)O)c(CCCOc3cccc4cc(F)ccc34)c3ccc(F)c-2c31 (racemic) [Example 19, (rac)-4-fluoro-7-{3-[(6-fluoronaphthalen-1-yl)oxy]propyl}-2,3-dimethyl-15-[2-(morpholin-4-yl)ethyl]-2,10,11,12,13,15-hexahydropyrazolo[4′,3′:9,10][1,6]oxazacycloundecino[8,7,6-hi]indole-8-carboxylic Acid] | 140 | – | – | – |
| 3.5e+06 | 0.0434 | 151 | CCc1c2c(nn1C)C(CCN1CC(F)(F)C1)OCCCCn1c(C(=O)O)c(CCCOc3cccc4cc(F)ccc34)c3ccc(Cl)c-2c31 (single isomer, unassigned; (+)) [Example 78, (+)-4-chloro-15-[2-(3,3-difluoroazetidin-1-yl)ethyl]-3-ethyl-7-{3-[(6-fluoronaphthalen-1-yl)oxy]propyl}-2-methyl-2,10,11,12,13,15-hexahydropyrazolo[4′,3′:9,10][1,6]oxazacycloundecino[8,7,6-hi]indole-8-carboxylic Acid—N-ethylethanamine Salt] | – | 0.33 | 0.0012 | IC50 (SNU-16 cells; SNU-16, 72 h, CellTiter-Glo): 130 nM; IC50 (DMS-114 cells; [3]): 88.5 nM; IC50 (SK-MEL-2 cells; SK-MEL-2, 72 h, CellTiter-Glo): 197 nM |
| – | – | – | CCc1c2c(nn1C)C(CCN1CCOCC1)OCCCCn1c(C(=O)O)c(CCCOc3cccc4ccccc34)c3ccc(F)c-2c31 (single isomer, unassigned; enantiomer 1) [Example 11, 3-ethyl-4-fluoro-2-methyl-15-[2-(morpholin-4-yl)ethyl]-7-{3-[(naphthalen-1-yl)oxy]propyl}-2,10,11,12,13,15-hexahydropyrazolo[4′,3′:9,10][1,6]oxazacycloundecino[8,7,6-hi]indole-8-carboxylic Acid—N-ethylethanamine Salt (Enantiomer 1)] | – | 0.61 | 0.0038 | IC50 (MV-4-11 cells; [4]): 144 nM; kon (geometric mean) (MCL-1; SPR, 25° C.): 6.2 E6 1/M 1/s; IC50 ([1]; uM): > 30 µM |
| 2.3e+07 | 0.0834 | 183 | Cc1c2c(nn1C)C(CCN1CCOCC1)OCCCCn1c(C(=O)O)c(CCCOc3cccc4ccccc34)c3ccc(Cl)c-2c31 (single isomer, unassigned; enantiomer 1) [Example 14, 4-chloro-2,3-dimethyl-15-[2-(morpholin-4-yl)ethyl]-7-{3-[(naphthalen-1-yl)oxy]propyl}-2,10,11,12,13,15-hexahydropyrazolo[4′,3′:9,10][1,6]oxazacycloundecino[8,7,6-hi]indole-8-carboxylic Acid (Enantiomer 1)] | – | 1.3 | 0.031 | IC50 (MV-4-11 cells; [5]): 37.6 nM; IC50 (DMS-114 cells; [3]): 150 nM |
| 2.5e+07 | 0.0368 | 455 | CCc1c2c(nn1C)C(CCN1CCOCC1)OCCCCn1c(C(=O)O)c(CCCOc3cccc4cc(F)ccc34)c3ccc(F)c-2c31 (single isomer, unassigned; enantiomer 1) [Example 50, (+)-3-ethyl-4-fluoro-7-{3-[(6-fluoronaphthalen-1-yl)oxy]propyl}-2-methyl-15-[2-(morpholin-4-yl)ethyl]-2,10,11,12,13,15-hexahydropyrazolo[4′,3′:9,10][1,6]oxazacycloundecino[8,7,6-hi]indole-8-carboxylic Acid (Enantiomer 1)] | – | 0.36 | 0.009 | IC50 (SNU-16 cells; SNU-16, 72 h, CellTiter-Glo): 321 nM; IC50 (DMS-114 cells; [3]): 153 nM; IC50 (SK-MEL-2 cells; SK-MEL-2, 72 h, CellTiter-Glo): 505 nM |
| – | 12.5 | – | Cc1c2c(nn1C)C(CCN1CCOCC1)OCCCCn1c(C(=O)O)c(CCCOc3cccc4ccccc34)c3ccc(Cl)c-2c31 (single isomer, unassigned; enantiomer 2) [Example 15, 4-chloro-2,3-dimethyl-15-[2-(morpholin-4-yl)ethyl]-7-{3-[(naphthalen-1-yl)oxy]propyl}-2,10,11,12,13,15-hexahydropyrazolo[4′,3′:9,10][1,6]oxazacycloundecino[8,7,6-hi]indole-8-carboxylic Acid (Enantiomer 2)] | – | – | – | IC50 (MV-4-11 cells; [5]): 7840 nM |

| Compound | kon (MCL-1) [M⁻¹ s⁻¹] | IC50 [1] [µM] | IC50 (SNU-389 cells; CellTiter-Glo) [nM] | IC50 (MV-4-11 cells; [2]) [nM] | Kd (MCL-1; SPR, 25° C.) [nM] | koff (MCL-1) [s⁻¹] | other results |
| --- | --- | --- | --- | --- | --- | --- | --- |
| CCc1c2c(nn1C)C(CCN1CCOCC1)OCCCCn1c(C(=O)O)c(CCCOc3cccc4ccccc34)c3ccc(F)c-2c31 (racemic) [Example 10, (rac)-3-ethyl-4-fluoro-2-methyl-15-[2-(morpholin-4-yl)ethyl]-7-[3-(naphthalen-1-yloxy)propyl]-2,10,11,12,13,15-hexahydropyrazolo[4′,3′:9,10][1,6]oxazacycloundecino[8,7,6-hi]indole-8-carboxylic Acid] | 9e+06 | 0.325 | – | 110 | 1.1 | 0.01 | – |
| Cc1c2c(nn1C)C(CCN1CCOCC1)OCCCCn1c(C(=O)O)c(CCCOc3cccc4cc(F)ccc34)c3ccc(Cl)c-2c31 (racemic) [Example 16, (rac)-4-chloro-7-{3-[(6-fluoronaphthalen-1-yl)oxy]propyl}-2,3-dimethyl-15-[2-(morpholin-4-yl)ethyl]-2,10,11,12,13,15-hexahydropyrazolo[4′,3′:9,10][1,6]oxazacycloundecino[8,7,6-hi]indole-8-carboxylic Acid] | – | – | 118 | 34.6 | – | – | – |
| Cc1c2c(nn1C)C(CCN1CCOCC1)OCCCCn1c(C(=O)O)c(CCCOc3cccc4cc(F)ccc34)c3ccc(F)c-2c31 (single isomer, unassigned; enantiomer 1) [Example 20, 4-fluoro-7-{3-[(6-fluoronaphthalen-1-yl)oxy]propyl}-2,3-dimethyl-15-[2-(morpholin-4-yl)ethyl]-2,10,11,12,13,15-hexahydropyrazolo[4′,3′:9,10][1,6]oxazacycloundecino[8,7,6-hi]indole-8-carboxylic Acid—N-ethylethanamine (Enantiomer 1)] | 3.2e+07 | 0.1 | – | – | 0.56 | 0.018 | IC50 (SNU-389 cells): 437 nM; IC50 (SNU-16 cells; SNU-16, 72 h): 397 nM; IC50 (DMS-114 cells; DMS-114, 72 h): 222 nM; IC50 (SK-MEL-2 cells; SK-MEL-2, 72 h): 607 nM |
| CCc1c2c(nn1C)C(CCN1CCOCC1)OCCCCn1c(C(=O)O)c(CCCOc3cccc4ccccc34)c3ccc(F)c-2c31 (single isomer, unassigned; enantiomer 2) [Example 12, 3-ethyl-4-fluoro-2-methyl-15-[2-(morpholin-4-yl)ethyl]-7-{3-[(naphthalen-1-yl)oxy]propyl}-2,10,11,12,13,15-hexahydropyrazolo[4′,3′:9,10][1,6]oxazacycloundecino[8,7,6-hi]indole-8-carboxylic Acid—N-ethylethanamine Salt (Enantiomer 2)] | – | 19.4 | – | – | 22 | – | IC50 (MV-4-11 cells; [4]): 14400 nM; koff (geometric mean) (MCL-1; SPR, 25° C.): 3.4 E−3 1/s; kon (geometric mean) (MCL-1; SPR, 25° C.): 1.5 E5 1/M 1/s |
